Laboratory results from paper PMC4336144, “Screening the Medicines for Malaria Venture "Malaria Box" against the Plasmodium falciparum Aminopeptidases, M1, M17 and M18” (PLoS ONE, 2015).
pKi: −log10 of the molar value.

Legend:
PfA-M1 and/or PfA-M17 = experiment: Multiplex primary screen, fluorogenic substrate Leu-Mec; type: biochemical, Plasmodium falciparum; conditions: 100 μM compound, multiplex assay
Procedure: A multiplex enzyme assay was developed to complete the primary screen of 400 compounds that were provided to us by MMV and SCYNEXIS. Combined PfMAP (15 nM PfA-M1; 80 nM PfA-M17 and 125 nM PfM18AAP) aminopeptidase activity in the presence of a single MMV compound (100 μM solubilized in 100% dimethyl sulfoxide, DMSO, final DMSO concentration in assay = 10%) was determined by simultaneous measurement of the release of the fluorogenic leaving group, -NHMec, from L-Leucine-7-amido-4-methylcoumarin-HCl (Leu-Mec) (Sigma) as well as the hydrolysis of p-nitroanilide from the chromogenic substrate, L-Glutamic acid p-nitroanilide (Glu-pNA) (Sigma). The fluorogenic substrate records the combined activity of PfA-M1 and PfA-M17 while the p-nitroanilide substrate is specific for PfM18AAP. Reactions were carried out in 96-well microtitre plates (200 μL total volume) in 50 mM Tris-HCl pH 8.0, 2 mM CoCl2 at 37°C. Following a 10 min incubation (multi-enzyme and single compound) at 37°C, reactions were initiated by addition of both fluorogenic and chromagenic substrates. Progress curves were monitored using a FLUOstar Omega multimode reader (BMG LabTech) for 1.5 h at 37°C. As activity references, individual enzyme and multiple enzyme 'no compound' controls and 'positive inhibitor' controls (with 10% DMSO) were included in each 96 well plate assay.

PfA-M17 = biological target: T1, PfA-M17 (Plasmodium falciparum, UniProt Q8IL11); experiment: Determination of Ki values (Dixon plots, H-Leu-NHMec); type: biochemical; conditions: Dixon plot
T1 construct: made in house; host or cells: Escherichia coli
T1 sequence (Q8IL11 84-605 limits assumed): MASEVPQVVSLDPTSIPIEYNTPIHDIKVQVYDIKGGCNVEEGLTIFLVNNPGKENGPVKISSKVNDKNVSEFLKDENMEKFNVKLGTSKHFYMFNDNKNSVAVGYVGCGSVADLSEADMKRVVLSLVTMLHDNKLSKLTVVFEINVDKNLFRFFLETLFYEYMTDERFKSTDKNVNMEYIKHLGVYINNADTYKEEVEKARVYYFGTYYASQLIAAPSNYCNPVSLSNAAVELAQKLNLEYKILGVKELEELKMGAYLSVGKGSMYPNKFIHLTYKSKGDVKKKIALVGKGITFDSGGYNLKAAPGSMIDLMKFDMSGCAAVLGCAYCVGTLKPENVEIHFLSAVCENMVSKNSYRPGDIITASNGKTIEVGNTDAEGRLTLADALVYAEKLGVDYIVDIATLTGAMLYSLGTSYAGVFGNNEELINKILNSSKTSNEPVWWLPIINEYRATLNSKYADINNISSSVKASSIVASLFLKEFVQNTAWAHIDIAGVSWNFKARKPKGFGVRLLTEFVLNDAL
Procedure: (§1) MMV020750 was purchased from InterBioScreen (catalog number STOCK2S-51608) and MMV666023 was purchased from ChemBridge (catalog number 5566248). The MMV020750 derivatives 1, 2 and 3 were purchased from Ambinter (catalog numbers AMB425981, AMB2311364 and AMB8506251 respectively). 4-(4,5-Diphenyl-1H-imidazol-2-yl)benzoic acid (4) was purchased from TCI Chemicals, while 4-(4,5-diphenyl-1H-imidazol-2-yl)-N-hydroxybenzamide (5) was prepared from 4 as described (S1 Methods). Aminopeptidase activity of both PfA-M1 and PfA-M17 enzymes was determined by measuring the release of the fluorogenic leaving group, NHMec, from the fluorogenic peptide L-Leucine-7-amido-4-methylcoumarin hydrochloride (H-Leu-NHMec) (Sigma L2145). The assay protocol devised by Stack CM, et al, (J. Biol Chem, 2007) was modified and used, with the reactions were carried out at 37°C and monitored using a spectrofluorometer (BMG FLUOstar) with excitation at 355 nm and emission at 460 nm. Each enzyme was pre-incubated in 50 mM Tris pH 8.0, 2 mM CoCl2; 5% DMSO with each inhibitor for 10 min prior to the addition of substrate. Inhibitor concentration was assayed between 0 and 500 μM final for each compound, and repeated over a narrowed range if necessary. The fluorescence signal was monitored until a final steady state velocity, V, was obtained. The K i values were then evaluated using Dixon plots of 1/V versus inhibitor concentration while the substrate concentration was maintained lower than that of the Km of the enzyme.
This was a particular problem with the PfA-M17 enzyme assays where we noted that at higher concentrations of 4, a decrease in fluorescence was observed. We hypothesise that this is a result of PfA-M17 binding to the compound and quenching the intrinsic fluorescence. […] We therefore chose to analyse a reduced concentration range for 4.

PfA-M1 [1] = biological target: T2, PfA-M1 (Plasmodium falciparum, UniProt O96935); experiment: as above; type: biochemical; conditions: for pKi: Dixon plot, read-out: Ki PfA-M1
T2 construct: made in house; host or cells: Escherichia coli
T2 sequence (O96935 195-1085 limits assumed): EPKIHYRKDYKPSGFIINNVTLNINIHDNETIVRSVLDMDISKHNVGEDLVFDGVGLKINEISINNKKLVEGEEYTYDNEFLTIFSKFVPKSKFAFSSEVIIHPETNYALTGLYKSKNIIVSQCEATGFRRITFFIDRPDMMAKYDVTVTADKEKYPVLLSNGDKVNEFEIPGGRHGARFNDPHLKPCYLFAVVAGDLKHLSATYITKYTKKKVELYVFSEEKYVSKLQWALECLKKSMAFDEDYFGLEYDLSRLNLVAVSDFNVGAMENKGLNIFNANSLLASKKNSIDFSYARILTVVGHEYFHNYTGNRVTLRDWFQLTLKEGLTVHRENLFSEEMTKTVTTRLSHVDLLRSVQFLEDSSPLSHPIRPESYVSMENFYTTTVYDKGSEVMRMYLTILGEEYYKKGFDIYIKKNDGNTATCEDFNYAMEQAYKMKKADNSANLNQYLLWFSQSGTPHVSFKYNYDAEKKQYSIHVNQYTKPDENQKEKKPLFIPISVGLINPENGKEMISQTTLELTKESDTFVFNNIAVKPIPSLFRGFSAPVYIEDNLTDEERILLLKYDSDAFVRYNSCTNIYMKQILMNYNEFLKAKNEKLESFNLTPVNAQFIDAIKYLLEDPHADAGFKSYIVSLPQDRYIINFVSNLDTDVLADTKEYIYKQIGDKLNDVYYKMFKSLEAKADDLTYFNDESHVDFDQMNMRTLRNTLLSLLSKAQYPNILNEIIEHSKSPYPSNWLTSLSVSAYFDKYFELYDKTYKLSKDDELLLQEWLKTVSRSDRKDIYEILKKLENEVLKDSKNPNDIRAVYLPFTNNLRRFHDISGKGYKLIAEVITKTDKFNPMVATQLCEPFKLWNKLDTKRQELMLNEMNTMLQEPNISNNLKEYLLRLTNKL
Procedure: as §1

PfA-M1 [2] = biological target: T2, PfA-M1; experiment: Secondary screening against individual enzyme; type: biochemical; conditions: 100 μM compound, n = 3
Procedure: Aminopeptidase activity of each individual enzyme in the presence of a single MMV compound (100 μM) was determined using Leu-Mec for both PfA-M1 (15 nM) and PfA-M17 (80 nM) or Glu-pNA for PfM18AAP (125 nM). Reactions were carried out in 96-well microtitre plates (200 μl total volume) in 50 mM Tris-HCl pH 8.0, 2 mM CoCl2 at 37°C. Following a 10 min incubation (enzyme and compound) at 37°C, reactions were initiated by addition of enzyme specific substrate. Progress curves were monitored using a FLUOstar Omega multimode reader (BMG LabTech) for 1.5 h at 37°C. As activity references, individual enzyme 'no compound' controls and 'positive inhibitor' controls were included in each 96 well plate assay. We applied a cut-off of < 10% activity in the presence of 100 μM compound for selection to the next phase. Compounds that were selected to proceed were then used in further assays to obtain n = 3.

Structure (SMILES)	Activity (PfA-M1 and/or PfA-M17) (PfA-M1 and/or PfA-M17)	other results
COc1ccc(C=C2SC(Nc3ccc(F)cc3)=NC2=O)c(OC)c1 [MMV084434]	R	–
CCOC(=O)c1c(NC(=O)c2ccccc2)sc2c(O)c(CN(CC)CC)ccc12 [MMV665831]	R	–
O=C(O)c1ccc(-c2nc(-c3ccccc3)c(-c3ccccc3)[nH]2)cc1 [Compound 4, 4-(4,5-Diphenyl-1H-imidazol-2-yl)benzoic acid]	–	pKi (PfA-M17): 4.40 to 4.70; Ki PfA-M17 (PfA-M17): micromolar range; pKi (PfA-M1 [1]): 5.28; increase in potency against PfA-M1 (PfA-M1 [1]; compared to MMV020750): > 10 fold
CN(CCO)c1ccc(-c2nc(-c3ccccc3)c(-c3ccccc3)[nH]2)cc1 [Compound 1]	–	pKi (PfA-M17): < 3.30; pKi (PfA-M1 [1]): < 3.30
COc1ccc(C(=O)NC(c2ccccc2Cl)c2cc(Cl)c3cccnc3c2O)cc1 (centres unmarked) [MMV666022]	R	–
O=C(NNc1cc(N2CCCC2)nc(N2CCCC2)n1)c1ccccc1 [MMV396770]	R	–
Nc1ccc(-c2nc3cc(Oc4ccc(Oc5ccc6[nH]c(-c7ccc(N)cc7)nc6c5)cc4)ccc3[nH]2)cc1 [MMV011895]	R	–
COc1ccc(CCN2C(=O)c3[nH]nc(-c4cc(Cl)c(C)cc4O)c3C2c2ccccc2F)cc1 (centres unmarked) [MMV396717]	R	–
Oc1ccc(-c2nc(-c3ccc4oc5ccc(-c6[nH]c(-c7ccc(O)cc7)nc6-c6ccccc6)cc5c4c3)c(-c3ccccc3)[nH]2)cc1 [MMV000753]	R	–
Oc1c(C(Nc2ccccn2)c2cccc(Oc3ccccc3)c2)ccc2cccnc12 (centres unmarked) [MMV665814]	R	–
COc1cc(-c2nc(-c3ccccc3)c(-c3ccccc3)[nH]2)ccc1OCC(N)=O [Compound 2]	–	pKi (PfA-M17): < 3.30; pKi (PfA-M1 [1]): < 3.30
OCCNc1nc(Nc2ccc(Cl)c(Cl)c2)nc2ccccc12 [MMV001041]	R	–
COc1ccc(/C=C2/SC(=Nc3ccccc3)NC2=O)cc1 [MMV665836]	R	–
Cc1cccc(-n2ncc3c(O)nc(-n4nc(C)cc4NC(=O)c4cc5ccccc5o4)nc32)c1 [MMV403679]	R	reduction of PfA-M1 activity (PfA-M1 [2]): 75%
